Data: the NIST ThermoML archive (doi:10.1016/j.jct.2017.02.023)
± gives the expanded uncertainty stated by the source.

What was measured:
[1] = xn = mol fraction of the nth substance listed; conditions: 81.5 kPa, Liquid, Vibrating tube method
[2] = refractive index (Na D-line) (dimensionless); xn = mol fraction of the nth substance listed; conditions: 81.5 kPa, Liquid, Standard Abbe refractometry

## CNC1CCCCC1 [N-methylcyclohexylamine] + CCCCC(C)O
[1]; 298.15 K, x2 = 0
  mass density: 865.2 ± 1.6 kg/m3
[1]; 298.15 K, x2 = 0.0915
  mass density: 861.23 ± 1.6 kg/m3
[1]; 298.15 K, x2 = 0.1814
  mass density: 857.43 ± 1.6 kg/m3
[1]; 298.15 K, x2 = 0.2693
  mass density: 853.71 ± 1.6 kg/m3
[1]; 298.15 K, x2 = 0.3559
  mass density: 849.84 ± 1.6 kg/m3
[1]; 298.15 K, x2 = 0.44
  mass density: 845.7 ± 1.6 kg/m3
[1]; 298.15 K, x2 = 0.5256
  mass density: 841.05 ± 1.6 kg/m3
[1]; 298.15 K, x2 = 0.608
  mass density: 836.06 ± 1.6 kg/m3
[1]; 298.15 K, x2 = 0.6858
  mass density: 831.06 ± 1.6 kg/m3
[1]; 298.15 K, x2 = 0.7668
  mass density: 825.76 ± 1.6 kg/m3
[1]; 298.15 K, x2 = 0.8463
  mass density: 820.48 ± 1.6 kg/m3
[1]; 298.15 K, x2 = 0.9235
  mass density: 815.36 ± 1.6 kg/m3
[1]; 308.15 K, x2 = 0
  mass density: 856.57 ± 1.6 kg/m3
[1]; 308.15 K, x2 = 0.0915
  mass density: 852.73 ± 1.6 kg/m3
[1]; 308.15 K, x2 = 0.1814
  mass density: 848.96 ± 1.6 kg/m3
[1]; 308.15 K, x2 = 0.2693
  mass density: 845.27 ± 1.6 kg/m3
[1]; 308.15 K, x2 = 0.3559
  mass density: 841.4 ± 1.6 kg/m3
[1]; 308.15 K, x2 = 0.44
  mass density: 837.27 ± 1.6 kg/m3
[1]; 308.15 K, x2 = 0.5256
  mass density: 832.6 ± 1.6 kg/m3
[1]; 308.15 K, x2 = 0.608
  mass density: 827.68 ± 1.6 kg/m3
[1]; 308.15 K, x2 = 0.6858
  mass density: 822.74 ± 1.6 kg/m3
[1]; 308.15 K, x2 = 0.7668
  mass density: 817.47 ± 1.6 kg/m3
[1]; 308.15 K, x2 = 0.8463
  mass density: 812.27 ± 1.6 kg/m3
[1]; 308.15 K, x2 = 0.9235
  mass density: 807.2 ± 1.6 kg/m3
[1]; 318.15 K, x2 = 0
  mass density: 847.67 ± 1.6 kg/m3
[1]; 318.15 K, x2 = 0.0915
  mass density: 843.97 ± 1.6 kg/m3
[1]; 318.15 K, x2 = 0.1814
  mass density: 840.23 ± 1.6 kg/m3
[1]; 318.15 K, x2 = 0.2693
  mass density: 836.53 ± 1.6 kg/m3
[1]; 318.15 K, x2 = 0.3559
  mass density: 832.77 ± 1.6 kg/m3
[1]; 318.15 K, x2 = 0.44
  mass density: 828.7 ± 1.6 kg/m3
[1]; 318.15 K, x2 = 0.5256
  mass density: 824.08 ± 1.6 kg/m3
[1]; 318.15 K, x2 = 0.608
  mass density: 819.22 ± 1.6 kg/m3
[1]; 318.15 K, x2 = 0.6858
  mass density: 814.31 ± 1.6 kg/m3
[1]; 318.15 K, x2 = 0.7668
  mass density: 809.16 ± 1.6 kg/m3
[1]; 318.15 K, x2 = 0.8463
  mass density: 804.01 ± 1.6 kg/m3
[1]; 318.15 K, x2 = 0.9235
  mass density: 798.91 ± 1.6 kg/m3
[1]; 328.15 K, x2 = 0
  mass density: 838.68 ± 1.6 kg/m3
[1]; 328.15 K, x2 = 0.0915
  mass density: 835.05 ± 1.6 kg/m3
[1]; 328.15 K, x2 = 0.1814
  mass density: 831.33 ± 1.6 kg/m3
[1]; 328.15 K, x2 = 0.2693
  mass density: 827.62 ± 1.6 kg/m3
[1]; 328.15 K, x2 = 0.3559
  mass density: 823.77 ± 1.6 kg/m3
[1]; 328.15 K, x2 = 0.44
  mass density: 819.71 ± 1.6 kg/m3
[1]; 328.15 K, x2 = 0.5256
  mass density: 815.12 ± 1.6 kg/m3
[1]; 328.15 K, x2 = 0.608
  mass density: 810.28 ± 1.6 kg/m3
[1]; 328.15 K, x2 = 0.6858
  mass density: 805.47 ± 1.6 kg/m3
[1]; 328.15 K, x2 = 0.7668
  mass density: 800.26 ± 1.6 kg/m3
[1]; 328.15 K, x2 = 0.8463
  mass density: 795.06 ± 1.6 kg/m3
[1]; 328.15 K, x2 = 0.9235
  mass density: 789.93 ± 1.6 kg/m3
[2]; 298.15 K, x2 = 0
  refractive index: 1.45306 ± 0.0016
[2]; 298.15 K, x2 = 0.0915
  refractive index: 1.45049 ± 0.0016
[2]; 298.15 K, x2 = 0.1814
  refractive index: 1.4477 ± 0.0016
[2]; 298.15 K, x2 = 0.2693
  refractive index: 1.445 ± 0.0016
[2]; 298.15 K, x2 = 0.3559
  refractive index: 1.44229 ± 0.0016
[2]; 298.15 K, x2 = 0.44
  refractive index: 1.43938 ± 0.0016
[2]; 298.15 K, x2 = 0.5256
  refractive index: 1.43598 ± 0.0016
[2]; 298.15 K, x2 = 0.608
  refractive index: 1.43233 ± 0.0016
[2]; 298.15 K, x2 = 0.6858
  refractive index: 1.42866 ± 0.0016
[2]; 298.15 K, x2 = 0.7668
  refractive index: 1.42478 ± 0.0016
[2]; 298.15 K, x2 = 0.8463
  refractive index: 1.42103 ± 0.0016
[2]; 298.15 K, x2 = 0.9235
  refractive index: 1.41731 ± 0.0016
[2]; 308.15 K, x2 = 0
  refractive index: 1.44812 ± 0.0016
[2]; 308.15 K, x2 = 0.0915
  refractive index: 1.44581 ± 0.0016
[2]; 308.15 K, x2 = 0.1814
  refractive index: 1.44305 ± 0.0016
[2]; 308.15 K, x2 = 0.2693
  refractive index: 1.44038 ± 0.0016
[2]; 308.15 K, x2 = 0.3559
  refractive index: 1.4377 ± 0.0016
[2]; 308.15 K, x2 = 0.44
  refractive index: 1.43484 ± 0.0016
[2]; 308.15 K, x2 = 0.5256
  refractive index: 1.43151 ± 0.0016
[2]; 308.15 K, x2 = 0.608
  refractive index: 1.42789 ± 0.0016
[2]; 308.15 K, x2 = 0.6858
  refractive index: 1.42425 ± 0.0016
[2]; 308.15 K, x2 = 0.7668
  refractive index: 1.42041 ± 0.0016
[2]; 308.15 K, x2 = 0.8463
  refractive index: 1.4167 ± 0.0016
[2]; 308.15 K, x2 = 0.9235
  refractive index: 1.41299 ± 0.0016
[2]; 318.15 K, x2 = 0
  refractive index: 1.4431 ± 0.0016
[2]; 318.15 K, x2 = 0.0915
  refractive index: 1.44104 ± 0.0016
[2]; 318.15 K, x2 = 0.1814
  refractive index: 1.43835 ± 0.0016
[2]; 318.15 K, x2 = 0.2693
  refractive index: 1.43572 ± 0.0016
[2]; 318.15 K, x2 = 0.3559
  refractive index: 1.43309 ± 0.0016
[2]; 318.15 K, x2 = 0.44
  refractive index: 1.43029 ± 0.0016
[2]; 318.15 K, x2 = 0.5256
  refractive index: 1.42702 ± 0.0016
[2]; 318.15 K, x2 = 0.608
  refractive index: 1.42346 ± 0.0016
[2]; 318.15 K, x2 = 0.6858
  refractive index: 1.41985 ± 0.0016
[2]; 318.15 K, x2 = 0.7668
  refractive index: 1.41606 ± 0.0016
[2]; 318.15 K, x2 = 0.8463
  refractive index: 1.4124 ± 0.0016
[2]; 318.15 K, x2 = 0.9235
  refractive index: 1.4087 ± 0.0016
[2]; 328.15 K, x2 = 0
  refractive index: 1.43809 ± 0.0016
[2]; 328.15 K, x2 = 0.0915
  refractive index: 1.43628 ± 0.0016
[2]; 328.15 K, x2 = 0.1814
  refractive index: 1.43364 ± 0.0016
[2]; 328.15 K, x2 = 0.2693
  refractive index: 1.43103 ± 0.0016
[2]; 328.15 K, x2 = 0.3559
  refractive index: 1.42844 ± 0.0016
[2]; 328.15 K, x2 = 0.44
  refractive index: 1.42569 ± 0.0016
[2]; 328.15 K, x2 = 0.5256
  refractive index: 1.42247 ± 0.0016
[2]; 328.15 K, x2 = 0.608
  refractive index: 1.41895 ± 0.0016
[2]; 328.15 K, x2 = 0.6858
  refractive index: 1.41537 ± 0.0016
[2]; 328.15 K, x2 = 0.7668
  refractive index: 1.41162 ± 0.0016
[2]; 328.15 K, x2 = 0.8463
  refractive index: 1.40799 ± 0.0016
[2]; 328.15 K, x2 = 0.9235
  refractive index: 1.40428 ± 0.0016
